The series can be described thus: Heat stability test (stress storage at 80° C., clopidogrel content by HPLC). Particulars: tightly closed container at 80° C., day 3, content of clopidogrel by HPLC. It is filed as physicochemical. The method, then:
Each of the (+)-clopidogrel isomer-resinate complex, so obtained from Examples 1, 2 and 8, including a solid form of (+)-clopidogrel optical isomer-Amberlite complex and (+)-clopidogrel isomer (free base), so obtained from Comparative examples 1 and 2, were put into a tightly closed container at 80° C. to determine the contents of clopidogrel in the baseline, day 1 and day 3 by HPLC analysis in accordance with a content uniformity test of the U.S. Pharmacopoeia.
(HPLC Analysis) • Column: ULTRON ES-OVM chiral 5 ? , 4.6×250 mm • Mobile phase: 0.01 M potassium dihydrogen phosphate solution/acetonitrile 75:25 • Flow rate: 1 mL/min • Column temperature: Room temperature • Detector: Ultraviolet absorption spectrophotometer (detection wavelength: 220 nm) • Injection volume: 10 ?

On to `COC(=O)[C@H](c1ccccc1Cl)N1CCc2sccc2C1` [(+)-clopidogrel isomer (free base), methyl(+)-(S)-(2-chlorophenyl)(6,7-dihydro-4H-thieno[3,2-c]pyridine-5-yl)acetate], for which the “decrease in content at day 3” value was 70%.

The values above are taken from patent US20080226579A1, “Novel Resinate Complex of S-Clopidogrel and Production Method Thereof” (Chong Kun Dang Pharmaceutical Corp., priority 2005, published 2008).
